Source: ChEMBL document CHEMBL1201862, “PubChem BioAssay data set” (2004)
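All cell lines were grown in 96-well plates and treated with compound for 48 hours. GI50: concentration for 50% inhibition of growth.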 Active and inactive are the calls of the source. Cut-off read from the data, not from the text of the source: active = GI50 up to about 1.1 µM and inactive = higher.

Assays:
Assay in all cases: NCI-60 cell line screen, 48 h
CAKI-1 = tested on: CAKI-1
HCT-15 = tested on: HCT-15
HOP-62 = tested on: HOP-62
K562 = tested on: K562
KM12 = tested on: KM12
M14 = tested on: M14
MCF7 = tested on: MCF7
MDA-MB-435 = tested on: MDA-MB-435
NCI-H226 = tested on: NCI-H226
NCI/ADR-RES = tested on: NCI/ADR-RES
RPMI-8226 = tested on: RPMI-8226
SF-539 = tested on: SF-539
SK-OV-3 = tested on: SK-OV-3
SR = tested on: SR
UACC-257 = tested on: UACC-257
UO-31 = tested on: UO-31
MOLT-4 = tested on: MOLT-4
HCC 2998 = tested on: HCC 2998

SMILES	GI50 (CAKI-1)	GI50 (HCT-15) [µM]	GI50 (HOP-62)	GI50 (K562)	GI50 (KM12)	GI50 (M14)	GI50 (MCF7)	GI50 (MDA-MB-435)	GI50 (NCI-H226)	GI50 (NCI/ADR-RES)	GI50 (RPMI-8226)	GI50 (SF-539)	GI50 (SK-OV-3)	GI50 (SR)	GI50 (UACC-257)	GI50 (UO-31)	GI50 (MOLT-4)	GI50 (HCC 2998)
COc1cc2nc(-c3cccs3)[nH]c(=O)c2cc1OC	> 100 µM (inactive)	> 100	> 100 µM (inactive)	> 100 µM (inactive)	> 100 µM (inactive)	> 100 µM (inactive)	> 100 µM (inactive)	> 100 µM (inactive)	> 100 µM (inactive)	> 100 µM (inactive)	65.5 µM (inactive)	38.7 µM (inactive)	> 100 µM (inactive)	13.8 µM (inactive)	> 100 µM (inactive)	> 100 µM (inactive)	–	–
COc1cc([N+](=O)[O-])ccc1NC(=O)C(F)(F)F	> 100 µM (inactive)	> 100	> 100 µM (inactive)	> 100 µM (inactive)	97.9 µM (inactive)	> 100 µM (inactive)	> 100 µM (inactive)	> 100 µM (inactive)	> 100 µM (inactive)	> 100 µM (inactive)	> 100 µM (inactive)	> 100 µM (inactive)	> 100 µM (inactive)	> 100 µM (inactive)	> 100 µM (inactive)	84.3 µM (inactive)	> 100 µM (inactive)	–
COc1ccc(-c2c(C#N)c(-c3ccc(C)cc3)n(NS(=O)(=O)c3ccc(C)cc3)c(=O)c2C#N)cc1	63.7 µM (inactive)	60.3	39.7 µM (inactive)	57 µM (inactive)	24.8 µM (inactive)	55.2 µM (inactive)	24.5 µM (inactive)	65.9 µM (inactive)	> 100 µM (inactive)	53.7 µM (inactive)	17.3 µM (inactive)	32.4 µM (inactive)	70.5 µM (inactive)	–	> 100 µM (inactive)	–	19.8 µM (inactive)	62.1 µM (inactive)
CC(C)(C)c1cc(S(=O)(=O)O)c2oc(-c3ccccc3)cc(=O)c2c1	> 100 µM (inactive)	> 100	> 100 µM (inactive)	> 100 µM (inactive)	> 100 µM (inactive)	–	> 100 µM (inactive)	> 100 µM (inactive)	> 100 µM (inactive)	> 100 µM (inactive)	> 100 µM (inactive)	> 100 µM (inactive)	–	> 100 µM (inactive)	> 100 µM (inactive)	> 100 µM (inactive)	> 100 µM (inactive)	> 100 µM (inactive)
COc1cc([N+](=O)[O-])c(S(=O)(=O)O)cc1N	> 100 µM (inactive)	> 100	> 100 µM (inactive)	> 100 µM (inactive)	> 100 µM (inactive)	> 100 µM (inactive)	> 100 µM (inactive)	> 100 µM (inactive)	> 100 µM (inactive)	> 100 µM (inactive)	> 100 µM (inactive)	> 100 µM (inactive)	> 100 µM (inactive)	> 100 µM (inactive)	> 100 µM (inactive)	> 100 µM (inactive)	> 100 µM (inactive)	–
CC(=O)OCC1OC(O[C@@H]2C[C@H]3C(C)(C)[C@@H](OC(C)=O)CC[C@]3(C)[C@H]3CC[C@]45C[C@]4(CC[C@H]5[C@@H](C)C[C@@H](O)[C@H](O)C(C)(C)F)[C@@]32C)C(O)C(O)C1O (stereo partly specified)	63.4 µM (inactive)	2.48	50 µM (inactive)	1.6 µM (inactive)	16.2 µM (inactive)	1.76 µM (inactive)	12.6 µM (inactive)	8.04 µM (inactive)	–	10.5 µM (inactive)	1.79 µM (inactive)	1.81 µM (inactive)	42.2 µM (inactive)	–	7.57 µM (inactive)	–	1.92 µM (inactive)	25.9 µM (inactive)
Nc1ncnc2c1nnn2C1C=CC(CP(=O)(O)O)C1 (stereo unspecified)	–	> 100	> 100 µM (inactive)	–	> 100 µM (inactive)	> 100 µM (inactive)	> 100 µM (inactive)	> 10 µM (inactive)	> 100 µM (inactive)	> 100 µM (inactive)	> 100 µM (inactive)	> 100 µM (inactive)	> 100 µM (inactive)	–	> 100 µM (inactive)	> 100 µM (inactive)	> 100 µM (inactive)	> 100 µM (inactive)
CCCC(=O)Oc1cc(OC(=O)CCC)c2c(C)cc(=O)oc2c1	–	> 100	> 100 µM (inactive)	44.9 µM (inactive)	32.5 µM (inactive)	> 100 µM (inactive)	54.5 µM (inactive)	58.6 µM (inactive)	87.7 µM (inactive)	> 100 µM (inactive)	32.2 µM (inactive)	21.8 µM (inactive)	> 100 µM (inactive)	18.5 µM (inactive)	83.6 µM (inactive)	39.6 µM (inactive)	29 µM (inactive)	–
C=CCC1C2CCC(O[Si](C(C)C)(C(C)C)C(C)C)(C(C(=O)OC)C2)C1O (stereo unspecified)	> 100 µM (inactive)	77.3	> 100 µM (inactive)	71.9 µM (inactive)	54.5 µM (inactive)	94.8 µM (inactive)	35.4 µM (inactive)	53.7 µM (inactive)	> 100 µM (inactive)	> 100 µM (inactive)	72.6 µM (inactive)	> 100 µM (inactive)	> 100 µM (inactive)	17.6 µM (inactive)	38.3 µM (inactive)	49.2 µM (inactive)	35.2 µM (inactive)	–
CCCCSCc1nc2nc(Cl)c(Cl)nc2[nH]1	23.7 µM (inactive)	23.4	16.1 µM (inactive)	24 µM (inactive)	29.8 µM (inactive)	23.8 µM (inactive)	23.6 µM (inactive)	33.5 µM (inactive)	33.7 µM (inactive)	27 µM (inactive)	12.9 µM (inactive)	50.2 µM (inactive)	18.7 µM (inactive)	22 µM (inactive)	16.1 µM (inactive)	–	19.5 µM (inactive)	–
Cc1noc(/N=C2\C=C(O)C(=O)c3ccccc32)c1C	5 µM (inactive)	11.6	2.18 µM (inactive)	0.206 µM (active)	0.254 µM (active)	0.656 µM (active)	0.495 µM (active)	0.126 µM (active)	23.8 µM (inactive)	0.505 µM (active)	9.64 µM (inactive)	1.04 µM (active)	8.3 µM (inactive)	18.7 µM (inactive)	4.19 µM (inactive)	3.18 µM (inactive)	18.7 µM (inactive)	–
S=C(N/N=C(/c1ccccc1)c1ccccn1)N1CCCCCC1	0.0818 µM (active)	< 0.0213	0.0514 µM (active)	< 0.0115 µM (active)	< 0.0306 µM (active)	0.001 µM (active)	0.0569 µM (active)	0.0843 µM (active)	0.0379 µM (active)	< 0.0194 µM (active)	–	0.198 µM (active)	< 0.027 µM (active)	–	< 0.015 µM (active)	0.0904 µM (active)	< 0.0134 µM (active)	0.176 µM (active)
CN(Cc1cnc2c(N)nc(N)nc2n1)c1ccc(Cl)cc1	> 100 µM (inactive)	71.6	39.3 µM (inactive)	> 100 µM (inactive)	> 100 µM (inactive)	73.8 µM (inactive)	95.5 µM (inactive)	> 100 µM (inactive)	1.91 µM (inactive)	16.2 µM (inactive)	> 100 µM (inactive)	24.3 µM (inactive)	26.2 µM (inactive)	62.2 µM (inactive)	78.5 µM (inactive)	47.1 µM (inactive)	> 100 µM (inactive)	–
N#CC1=C(N)OC(c2cccc([N+](=O)[O-])c2)C1(C#N)C#N (stereo unspecified)	2.98 µM (inactive)	18.7	18.9 µM (inactive)	26.2 µM (inactive)	> 10 µM (inactive)	25.8 µM (inactive)	20.8 µM (inactive)	23.3 µM (inactive)	30.8 µM (inactive)	34.3 µM (inactive)	18.3 µM (inactive)	21.8 µM (inactive)	70.3 µM (inactive)	–	17 µM (inactive)	17.9 µM (inactive)	–	20.9 µM (inactive)
COc1cc(/C=C2\C[C@H]3[C@@H]4CC=C5C[C@@H](O)CC[C@]5(C)[C@H]4CC[C@]3(C)[C@H]2O)cc(OC)c1OC	20.2 µM (inactive)	7.05	10.8 µM (inactive)	5.97 µM (inactive)	10.1 µM (inactive)	20.7 µM (inactive)	8.34 µM (inactive)	20 µM (inactive)	11 µM (inactive)	12.9 µM (inactive)	4.92 µM (inactive)	14.3 µM (inactive)	25.5 µM (inactive)	–	14.8 µM (inactive)	13 µM (inactive)	5.5 µM (inactive)	17.3 µM (inactive)
O=C1c2ccccc2-c2ccc(O)cc21	14.8 µM (inactive)	21.6	36.4 µM (inactive)	31.4 µM (inactive)	16.8 µM (inactive)	26.1 µM (inactive)	21.2 µM (inactive)	20.2 µM (inactive)	26.3 µM (inactive)	31.8 µM (inactive)	39 µM (inactive)	22.9 µM (inactive)	–	12 µM (inactive)	19.6 µM (inactive)	17.2 µM (inactive)	16.1 µM (inactive)	–
CSc1nn(C)cc2ncnc1-2	> 100 µM (inactive)	> 100	> 100 µM (inactive)	> 100 µM (inactive)	> 100 µM (inactive)	> 100 µM (inactive)	> 100 µM (inactive)	> 100 µM (inactive)	> 100 µM (inactive)	> 100 µM (inactive)	> 100 µM (inactive)	> 100 µM (inactive)	–	97.1 µM (inactive)	> 100 µM (inactive)	> 100 µM (inactive)	> 100 µM (inactive)	–
